Measurements taken from US20240197666A1, “DITERPENOID COMPOUNDS THAT ACT ON PROTEIN KINASE C (PKC)” (K-Gen Therapeutics, Inc., priority 2021, published 2024).
Where two headings read alike, the source gives them in different places.

Key:
Mino (Lymphoma) = assay: Proliferation of Mino; format: cell-based; settings: for IC50: Homo sapiens, MINO, read-out: IC50 Mino (Lymphoma)
How it was run: (§1)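 Cells seeded per line (KP-4 800-1000, Panc2.13 3000, Namalwa and Mino 5000-10000 cells/well), 24 h at 37° C, then 96 h with 3-fold serial dilutions of compound, final DMSO ≤0.25%. CellTiter Glo luminescence read; % inhibition vs DMSO-only max, IC50 fitted. Potency also normalized as ratio to comparator K101 across batches.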

KP-4 (Pancreatic) = assay: Proliferation of KP-4; format: cell-based; settings: read-out: IC50 KP-4 (Pancreatic)
How it was run: as §1

C1b domain of human PKCε = target: T1, C1b domain of human PKCε (Homo sapiens, UniProt Q02156); assay: biochemical; format: binding; settings: 3H-PDBu competition
T1 construct: Genes encoding C1b domains of human PKCα, δ, ε, θ, and PKD1 (PKCμ) were synthesized; made in house; host or cells: E. coli BL21(DE3)
How it was run: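 Affinity was measured by competition with the radiotracer 3H-PDBu for recombinant human GST-C1b fusion proteins expressed in E. coli BL21(DE3). Incubation ran 10 minutes at 37° C with shaking, then 20 minutes on ice, and filter-trapped 3H-PDBu was counted by scintillation. IC50 values were converted to Ki by Cheng-Prusoff using the experimentally determined Kd for each protein preparation.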

C1b domain of human PKCα = target: T2, C1b domain of human PKCα (Homo sapiens, UniProt P17252); assay: biochemical; format: binding; settings: 3H-PDBu competition
T2 construct: Genes encoding C1b domains of human PKCα, δ, ε, θ, and PKD1 (PKCμ) were synthesized; made in house; host or cells: E. coli BL21(DE3)

HL-60 (Leukemia) = assay: Proliferation of HL-60; format: cell-based; settings: for IC50: Homo sapiens, HL-60, read-out: IC50 HL-60 (Leukemia)
Panc2.13 (Pancreatic) = assay: Proliferation of Panc2.13; format: cell-based; settings: for IC50: read-out: IC50 Panc2.13 (Pancreatic)
How it was run: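 A 96-h CellTiter Glo viability assay was run with inhibition scored against DMSO-only controls and IC50 obtained by curve fitting. Values are given as the ratio IC50 of K101 over IC50 of test compound.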

A549 cell line = assay: Proliferation of A549 (CellTiter Glo); format: cell-based; settings: Homo sapiens, A549, 96 h, read-out: IC50 μM (A549 Cell Line)
How it was run: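 A549 cells (K-Ras-mutant NSCLC) were seeded at 1,000 cells/well, allowed 24 h to settle, then exposed for 96 h to 3-fold serially diluted compound (final DMSO ≤0.25%). CellTiter Glo luminescence was read, and inhibition was calculated relative to DMSO-only wells. IC50, relative IC50 and % top inhibition came from curve fitting.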

Panc2.13 tumors = assay: Panc2.13 xenograft model, intra-tumoral injection; format: in vivo, mouse; settings: for Tumor growth inhibition T/C: Day 45, seven daily IT injections, Nu/Nu mice; for tumor clearance: end of efficacy study, three mice per group, seven daily IT injections
Description: Immunodeficient (athymic) Nu/Nu mice were implanted at one flank subcutaneously with Panc2.13 pancreatic cancer cells. […] All groups tolerated drug treatments very well. […] Scabs formed after 1-2 weeks and the skin recovered with minimal scaring after 3-4 weeks. Tumor growth/re-growth on or near the injection site was monitored for up to 55 days. […] Tumor growth inhibition is calculated by dividing the group average tumor volume for the treated group by the group average tumor volume for the control group (TIC). A one-way ANOVA was performed to compare tumor volume among groups, and when a significant F-statistics (a ratio of treatment variance to the error variance) was obtained, comparisons between groups were carried out with Games-Howell test. All data were analyzed using GraphPad 5.0. P<0.05 was considered to be statistically significant.
A Mann-Whitney method was performed to analyze the tumor clearance rate comparing drug treated groups with the vehicle group at the end of the efficacy study. P<0.05 was considered to be statistically significant. Vehicle-injected tumors kept growing and there was no tumor clearance at the end point.

T1 sequence (Q02156 242-292 limits assumed): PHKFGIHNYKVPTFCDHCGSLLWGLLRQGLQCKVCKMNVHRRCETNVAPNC

With `CC1=C[C@H]2[C@@]3(O)[C@H](C)C[C@]4(OC(=O)[C@@H](N)CC5CCCCC5)[C@H]([C@@H]3C=C(CO)C[C@]2(O)C1=O)C4(C)C` the “ratio (IC50 of K101)/(IC50 of compound) Mino” value (Mino (Lymphoma)) was 7.33, the IC50 (Mino (Lymphoma)) was 1 to 10 nM and the IC50 (KP-4 (Pancreatic)) was 100 to 200 nM. The Ki (C1b domain of human PKCε) was 10 to 30 nM, the Ki (C1b domain of human PKCα) was 60 to 100 nM and the “ratio (IC50 of K101)/(IC50 of compound) HL-60” value (HL-60 (Leukemia)) was 2.32. For the same molecule, the IC50 (HL-60 (Leukemia)) was 30 to 60 nM, the “ratio (IC50 of K101)/(IC50 of compound) Panc2.13” value (Panc2.13 (Pancreatic)) was 7.1 and the IC50 (Panc2.13 (Pancreatic)) was 100 to 200 nM. It also gave an IC50 (A549 cell line) of 0.06 to 0.1 µM.
For `CC1=C[C@H]2[C@@]3(O)[C@H](C)C[C@]4(OC(=O)[C@@H](N)C5Cc6ccccc6C5)[C@H]([C@@H]3C=C(CO)C[C@]2(O)C1=O)C4(C)C`, the “ratio (IC50 of K101)/(IC50 of compound) Mino” value (Mino (Lymphoma)) was 5.5, the IC50 (Mino (Lymphoma)) was 10 to 30 nM and the IC50 (KP-4 (Pancreatic); 96 h) was 100 to 600 nM. For the same molecule, the Ki (C1b domain of human PKCε) was 10 to 30 nM, the “ratio (IC50 of K101)/(IC50 of compound) HL-60” value (HL-60 (Leukemia)) was 1.79 and the IC50 (HL-60 (Leukemia)) was 30 to 60 nM. The “ratio (IC50 of K101)/(IC50 of compound) Panc2.13” value (Panc2.13 (Pancreatic)) was 5.82, the IC50 (Panc2.13 (Pancreatic)) was 100 to 200 nM and the IC50 (A549 cell line) was 0.06 to 0.1 µM.
For `CC1=C[C@H]2[C@@]3(O)[C@H](C)C[C@]4(OC(=O)[C@@H](N)[C@]56C[C@H]7C[C@H](C[C@H](C7)C5)C6)[C@H]([C@@H]3C=C(CO)C[C@]2(O)C1=O)C4(C)C`, the “ratio (IC50 of K101)/(IC50 of compound) Mino” value (Mino (Lymphoma)) was 52.2, the IC50 (Mino (Lymphoma)) was 1 to 10 nM and the IC50 (KP-4 (Pancreatic)) was 1 to 10 nM. For the same molecule, the “Tumor growth inhibition T/C” value (Panc2.13 tumors) was 3.3, the tumor clearance (Panc2.13 tumors) was “two out of three” and the Ki (C1b domain of human PKCα) was 10 to 30 nM. For the same molecule, the “ratio (IC50 of K101)/(IC50 of compound) HL-60” value (HL-60 (Leukemia)) was 16.2, the IC50 (HL-60 (Leukemia)) was 1 to 10 nM and the “ratio (IC50 of K101)/(IC50 of compound) Panc2.13” value (Panc2.13 (Pancreatic)) was 71.7. The IC50 (Panc2.13 (Pancreatic)) was 10 to 30 nM and the IC50 (A549 cell line) was 0.001 to 0.01 µM.
For `CC1=C[C@H]2[C@@]3(O)[C@H](C)C[C@]4(OC(=O)[C@H](N)CCCCCCc5ccccc5)[C@H]([C@@H]3C=C(CO)C[C@]2(O)C1=O)C4(C)C`, the “ratio (IC50 of K101)/(IC50 of compound) Mino” value (Mino (Lymphoma)) was 21.3, the IC50 (Mino (Lymphoma)) was 1 to 10 nM and the IC50 (KP-4 (Pancreatic)) was 30 to 60 nM. The “Tumor growth inhibition T/C” value (Panc2.13 tumors) was 0, the Ki (C1b domain of human PKCε) was 10 to 30 nM and the “ratio (IC50 of K101)/(IC50 of compound) HL-60” value (HL-60 (Leukemia)) was 4.43. For the same molecule, the IC50 (HL-60 (Leukemia)) was 10 to 30 nM, the “ratio (IC50 of K101)/(IC50 of compound) Panc2.13” value (Panc2.13 (Pancreatic)) was 13.4 and the IC50 (Panc2.13 (Pancreatic); 96 h) was 100 to 600 nM. For the same molecule, the IC50 (A549 cell line) was 0.01 to 0.03 µM.
`CC1=C[C@H]2[C@@]3(O)[C@H](C)C[C@]4(OC(=O)[C@@H](N)CCCCCCc5ccccc5)[C@H]([C@@H]3C=C(CO)C[C@]2(O)C1=O)C4(C)C` was tested, and the “ratio (IC50 of K101)/(IC50 of compound) Mino” value (Mino (Lymphoma)) was 52.2, the IC50 (Mino (Lymphoma)) was 1 to 10 nM and the IC50 (KP-4 (Pancreatic)) was 1 to 10 nM. For the same molecule, the tumor clearance (Panc2.13 tumors) was “one out of three”, the Ki (C1b domain of human PKCε) was 10 to 30 nM and the “ratio (IC50 of K101)/(IC50 of compound) HL-60” value (HL-60 (Leukemia)) was 12.1. For the same molecule, the IC50 (HL-60 (Leukemia)) was 1 to 10 nM, the “ratio (IC50 of K101)/(IC50 of compound) Panc2.13” value (Panc2.13 (Pancreatic)) was 57.3 and the IC50 (Panc2.13 (Pancreatic)) was 10 to 30 nM. For the same molecule, the IC50 (A549 cell line) was 0.001 to 0.01 µM.
